Measured values taken from patent US11401271B2, “Fused heterocyclic compound, pyrazole-ring-containing fused heterocyclic compound, agricultural composition containing thereof, and method of using the composition” (SOUTH CHINA AGRICULTURAL UNIVERSITY, priority 2017, dated 2022).

What follows are compounds tested on Plutella xylostella (assay: whole plant or invertebrate). Settings: Plutella xylostella, read-out: Plutella xylostella Mortality (%) 500 ppm.
Assay type: in vivo
Outline: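 Cabbage leaf discs dipped 5 s in compound at 500 ppm (0.05% Tween-80 aqueous), air-dried, fed to about 35 2nd-instar larvae at 28° C., triplicate. Dead larvae counted after 24 h; mortality (%) corrected against Tween-80 control.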

| SMILES | mortality at 500 ppm [%] |
| --- | --- |
| Nc1ccc2c(c1)-n1nc(C(F)(F)F)c(SC(F)(F)F)c1NC2(C(F)(F)F)C(F)(F)F [Compound A13] | 100 |
| CC1(C)Nc2c(N)c(C#N)nn2-c2ccccc21 [Compound A15] | 100 |
| CNC(=O)Nc1c(C#N)nn2c1NC(C)(C)c1ccccc1-2 [Compound A19] | 100 |
| CC1(C)Nc2c([N+](=O)[O-])c(C#N)nn2-c2ccccc21 [Compound A21] | 100 |
| N#Cc1cnn2c1NC(F)(CN)c1ccc(Cl)cc1-2 (stereo not drawn) [Compound A22] | 96 |
| N#Cc1cnn2c1NC(N)(CN)c1ccc(Cl)cc1-2 (stereo not drawn) [Compound A23] | 100 |
| CCOC(=O)c1c(SC)nn2c1NC(F)(C(F)(F)F)c1ccccc1-2 (stereo not drawn) [Compound A27] | 100 |
| CSc1nn2c(c1C(=O)N1CCN(C)CC1)NC(F)(C(F)(F)F)c1ccccc1-2 (stereo not drawn) [Compound A30] | 100 |
| CNC(=O)N1c2c(C#N)c(SC)nn2-c2ccccc2C1(F)C(F)(F)F (stereo not drawn) [Compound A32] | 100 |

Each compound was assayed on Spodoptera exigua (assay: whole plant or invertebrate). Settings: Spodoptera exigua, 24 h, read-out: Spodoptera exigua Mortality (%) 500 ppm.
Assay type: in vivo
Outline: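 Cabbage leaf discs dipped 5 s in 500 ppm compound (0.05% Tween-80 aqueous), air-dried, fed to about 35 2nd-instar larvae at 28° C, three replicates. Deaths counted at 24 h; mortality corrected against Tween-80 control.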

| SMILES | mortality at 500 ppm [%] |
| --- | --- |
| Nc1ccc2c(c1)-n1nc(C(F)(F)F)c(SC(F)(F)F)c1NC2(C(F)(F)F)C(F)(F)F [Compound A13] | 100 |
| CC1(C)Nc2c(N)c(C#N)nn2-c2ccccc21 [Compound A15] | 100 |
| CNC(=O)Nc1c(C#N)nn2c1NC(C)(C)c1ccccc1-2 [Compound A19] | 100 |
| CC1(C)Nc2c([N+](=O)[O-])c(C#N)nn2-c2ccccc21 [Compound A21] | 100 |
| N#Cc1cnn2c1NC(F)(CN)c1ccc(Cl)cc1-2 (stereo not drawn) [Compound A22] | 100 |
| N#Cc1cnn2c1NC(N)(CN)c1ccc(Cl)cc1-2 (stereo not drawn) [Compound A23] | 100 |
| CCOC(=O)c1c(SC)nn2c1NC(F)(C(F)(F)F)c1ccccc1-2 (stereo not drawn) [Compound A27] | 100 |
| CSc1nn2c(c1C(=O)N1CCN(C)CC1)NC(F)(C(F)(F)F)c1ccccc1-2 (stereo not drawn) [Compound A30] | 100 |
| CNC(=O)N1c2c(C#N)c(SC)nn2-c2ccccc2C1(F)C(F)(F)F (stereo not drawn) [Compound A32] | 90 |

What follows are compounds tested on Aphis craccivora (assay: whole plant or invertebrate). Settings: Aphis craccivora, 24 h, read-out: Aphis craccivora Mortality (%) 500 ppm.
Assay type: in vivo
Outline: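 Wingless adults feeding on bean sprouts were dipped with the sprouts for 5 s in 500 ppm compound in aqueous 0.05% Tween-80, air-dried, then held at 23° C. Dead aphids counted after 24 h, triplicate, with 0.05% Tween-80 as control. Mortality (%) = (control live − treated live)/control live × 100.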

| SMILES | mortality at 500 ppm [%] |
| --- | --- |
| Nc1ccc2c(c1)-n1nc(C(F)(F)F)c(SC(F)(F)F)c1NC2(C(F)(F)F)C(F)(F)F [Compound A13] | 100 |
| CC1(C)Nc2c(N)c(C#N)nn2-c2ccccc21 [Compound A15] | 100 |
| CNC(=O)Nc1c(C#N)nn2c1NC(C)(C)c1ccccc1-2 [Compound A19] | 100 |
| CC1(C)Nc2c([N+](=O)[O-])c(C#N)nn2-c2ccccc21 [Compound A21] | 100 |
| N#Cc1cnn2c1NC(F)(CN)c1ccc(Cl)cc1-2 (stereo not drawn) [Compound A22] | 100 |
| N#Cc1cnn2c1NC(N)(CN)c1ccc(Cl)cc1-2 (stereo not drawn) [Compound A23] | 100 |
| CCOC(=O)c1c(SC)nn2c1NC(F)(C(F)(F)F)c1ccccc1-2 (stereo not drawn) [Compound A27] | 100 |
| CSc1nn2c(c1C(=O)N1CCN(C)CC1)NC(F)(C(F)(F)F)c1ccccc1-2 (stereo not drawn) [Compound A30] | 100 |
| CNC(=O)N1c2c(C#N)c(SC)nn2-c2ccccc2C1(F)C(F)(F)F (stereo not drawn) [Compound A32] | 100 |

What follows are compounds tested on Solenopsis invicta (assay: whole plant or invertebrate). Settings: Solenopsis invicta, 24 h, read-out: Solenopsis invicta Mortality (%) 100 ppm 24 h, 100 ppm; 24 h; water test tube poison-feeding.
Assay type: in vivo
Outline: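 Fire ants fed compound by water test-tube poison-feeding at 100 ppm in aqueous 0.05% Tween-80/5% honey (from 10 g/L DMSO stock), kept at 25 °C. Live and dead ants counted at 24 and 72 h; mortality (%) calculated relative to live ants in the untreated control.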

| SMILES | mortality at 100 ppm [%] |
| --- | --- |
| Nc1ccc2c(c1)-n1nc(C(F)(F)F)c(SC(F)(F)F)c1NC2(C(F)(F)F)C(F)(F)F [Compound A13] | 20 |
| CC1(C)Nc2c(N)c(C#N)nn2-c2ccccc21 [Compound A15] | 24 |
| CNC(=O)Nc1c(C#N)nn2c1NC(C)(C)c1ccccc1-2 [Compound A19] | 20 |
| CC1(C)Nc2c([N+](=O)[O-])c(C#N)nn2-c2ccccc21 [Compound A21] | 24 |
| N#Cc1cnn2c1NC(F)(CN)c1ccc(Cl)cc1-2 (stereo not drawn) [Compound A22] | 30 |
| N#Cc1cnn2c1NC(N)(CN)c1ccc(Cl)cc1-2 (stereo not drawn) [Compound A23] | 34 |
| CCOC(=O)c1c(SC)nn2c1NC(F)(C(F)(F)F)c1ccccc1-2 (stereo not drawn) [Compound A27] | 30 |
| CSc1nn2c(c1C(=O)N1CCN(C)CC1)NC(F)(C(F)(F)F)c1ccccc1-2 (stereo not drawn) [Compound A30] | 40 |
| CNC(=O)N1c2c(C#N)c(SC)nn2-c2ccccc2C1(F)C(F)(F)F (stereo not drawn) [Compound A32] | 26 |

Same assay, conditions: Solenopsis invicta, 72 h, read-out: Solenopsis invicta Mortality (%) 100 ppm 72 h, 100 ppm; 72 h; water test tube poison-feeding

| SMILES | mortality at 100 ppm [%] |
| --- | --- |
| Nc1ccc2c(c1)-n1nc(C(F)(F)F)c(SC(F)(F)F)c1NC2(C(F)(F)F)C(F)(F)F [Compound A13] | 100 |
| CC1(C)Nc2c(N)c(C#N)nn2-c2ccccc21 [Compound A15] | 100 |
| CNC(=O)Nc1c(C#N)nn2c1NC(C)(C)c1ccccc1-2 [Compound A19] | 100 |
| CC1(C)Nc2c([N+](=O)[O-])c(C#N)nn2-c2ccccc21 [Compound A21] | 100 |
| N#Cc1cnn2c1NC(F)(CN)c1ccc(Cl)cc1-2 (stereo not drawn) [Compound A22] | 97 |
| N#Cc1cnn2c1NC(N)(CN)c1ccc(Cl)cc1-2 (stereo not drawn) [Compound A23] | 100 |
| CCOC(=O)c1c(SC)nn2c1NC(F)(C(F)(F)F)c1ccccc1-2 (stereo not drawn) [Compound A27] | 100 |
| CSc1nn2c(c1C(=O)N1CCN(C)CC1)NC(F)(C(F)(F)F)c1ccccc1-2 (stereo not drawn) [Compound A30] | 100 |
| CNC(=O)N1c2c(C#N)c(SC)nn2-c2ccccc2C1(F)C(F)(F)F (stereo not drawn) [Compound A32] | 93 |

These compounds were tested on Bombyx mori L. (assay: Toxicity test on 2nd-instar larvae of Bombyx mori L., leaf immersion feeding method). Settings: 1000 ppm, 24 hours.
Assay type: in vivo
Protocol: (1) Toxicity Test on 2nd-Instar Larvae of Bombyx mori L.
Bombyx mori L. is an important economic insect sensitive to pesticides in an agricultural ecosystem, and is also one of the non-target organisms of environmental ecology listed in pesticide registration of China. The 2nd-instar larvae of Bombyx mori L. were used as test objects and tested by using a leaf immersion feeding method.
Operation process: Samples were weighed accurately, and respectively added with 200 μL of dimethyl sulfoxide to prepare 10 g/L mother liquor which was diluted into a concentration of 1000 ppm with an aqueous solution containing 0.05% of Tween-80 during the test. Young cotyledons of mulberries were collected, washed and air-dried, immersed in a liquid medicine, taken out after 5 seconds, naturally air-dryed, and then transferred into a clean vessel. About 35 2nd -instar larvae of Bombyx mori L. were put into the vessel and fed at a constant temperature of 25° C. Each concentration was repeated 3 times, and an aqueous solution containing 0.05% of Tween-80 was used as a control group. After being treated for 24 hours, a number of dead Bombyx mori L. was counted, and a mortality (%) was calculated according to a formula that mortality (%)=(number of live larvae in the control group −number of treated live larvae)/number of live larvae in the control group * 100%.

| SMILES | Toxicity determination Bombyx mori L. Mortality (%) |
| --- | --- |
| Nc1ccc2c(c1)-n1nc(C(F)(F)F)c(SC(F)(F)F)c1NC2(C(F)(F)F)C(F)(F)F [Compound A13] | 17 |
| CC1(C)Nc2c(N)c(C#N)nn2-c2ccccc21 [Compound A15] | 8 |
| CNC(=O)Nc1c(C#N)nn2c1NC(C)(C)c1ccccc1-2 [Compound A19] | 7 |
| CC1(C)Nc2c([N+](=O)[O-])c(C#N)nn2-c2ccccc21 [Compound A21] | 0 |
| N#Cc1cnn2c1NC(F)(CN)c1ccc(Cl)cc1-2 (stereo not drawn) [Compound A22] | 0 |
| N#Cc1cnn2c1NC(N)(CN)c1ccc(Cl)cc1-2 (stereo not drawn) [Compound A23] | 0 |
| CCOC(=O)c1c(SC)nn2c1NC(F)(C(F)(F)F)c1ccccc1-2 (stereo not drawn) [Compound A27] | 10 |
| CSc1nn2c(c1C(=O)N1CCN(C)CC1)NC(F)(C(F)(F)F)c1ccccc1-2 (stereo not drawn) [Compound A30] | 8 |
| CNC(=O)N1c2c(C#N)c(SC)nn2-c2ccccc2C1(F)C(F)(F)F (stereo not drawn) [Compound A32] | 10 |

The compounds below were run on Apis cernan (assay: Toxicity test on adult worker bees of Apis cernan, small beaker method). Settings: 500 ppm, 48 hours.
Assay type: in vivo
Protocol: (2) Toxicity Test on Adult Worker Bees of Apis cernan.
Adult worker bees of Apis cernan having the same size were selected for test. The worker bees were collected from beekeeping boxes in the daystart of the test day and tested by using a small beaker method.
Operation process: A small amount of absorbent cotton was put into a 5 mL small beaker, 5 mL of a test liquid medicine (a concentration of 500 ppm) was dropped into the absorbent cotton, and stirred gently to make the absorbent cotton completely wet but not leached obviously, then the small beaker was put into a 500 mL large beaker, then 15 worker bees were put into the large beaker, and finally the large beaker was sealed with gauze. After treatment, the large beaker was placed in a dark room of an artificial climate box. After taking the medicine for 48 hours, a number of live and dead worker bees were investigated.

| SMILES | Toxicity determination Apis cernan Mortality (%) |
| --- | --- |
| Nc1ccc2c(c1)-n1nc(C(F)(F)F)c(SC(F)(F)F)c1NC2(C(F)(F)F)C(F)(F)F [Compound A13] | 17 |
| CC1(C)Nc2c(N)c(C#N)nn2-c2ccccc21 [Compound A15] | 5 |
| CNC(=O)Nc1c(C#N)nn2c1NC(C)(C)c1ccccc1-2 [Compound A19] | 5 |
| CC1(C)Nc2c([N+](=O)[O-])c(C#N)nn2-c2ccccc21 [Compound A21] | 6 |
| N#Cc1cnn2c1NC(F)(CN)c1ccc(Cl)cc1-2 (stereo not drawn) [Compound A22] | 3 |
| N#Cc1cnn2c1NC(N)(CN)c1ccc(Cl)cc1-2 (stereo not drawn) [Compound A23] | 5 |
| CCOC(=O)c1c(SC)nn2c1NC(F)(C(F)(F)F)c1ccccc1-2 (stereo not drawn) [Compound A27] | 15 |
| CSc1nn2c(c1C(=O)N1CCN(C)CC1)NC(F)(C(F)(F)F)c1ccccc1-2 (stereo not drawn) [Compound A30] | 8 |
| CNC(=O)N1c2c(C#N)c(SC)nn2-c2ccccc2C1(F)C(F)(F)F (stereo not drawn) [Compound A32] | 4 |
